Assay results taken from patent US20040202728A1, “Method for the destruction of oocysts” (priority 2001, published 2004).

Test system: Cryptosporidium oocysts
Assay: Microelectrophoresis of oocysts in the presence of water treatment coagulants
Protocol: The zeta potentials of Cryptosporidium oocysts in the presence 5 mg/L ferric chloride were studied over a pH range 3-10.
As with the ferric flocs, it was possible to differentiate between the alum flocs and the oocyst in solution because of their different size, shape and scattering ability. The zeta potentials of Cryptosporidium oocysts in the presence of 6.8 mg/L alum were studied over a pH range 4-8.

Row | Structure (SMILES) | adsorption of coagulant species to oocysts (from zeta potentials) (6.8 mg/L, pH range 4-8) | adsorption of coagulant species to oocysts (from zeta potentials) (5 mg/L, pH range 3-10)
1 | O=S(=O)([O-])[O-].O=S(=O)([O-])[O-].O=S(=O)([O-])[O-].[Al+3].[Al+3] [alum] | chemisorbed to the oocyst surface | 
2 | [Cl][Fe]([Cl])[Cl] [ferric chloride] |  | no adsorption
